Laboratory results taken from EP0416740A2, “Novel compounds with renin-inhibiting activity” (Beecham Group p.l.c., priority 1989, dated 1991).
Structures can show the parent of a compound that is named as a salt.

molecular target: T1, human renin (Homo sapiens, UniProt P00797); assay: biochemical; conditions: not given
T1 construct: from tissue; host or cells: human plasma from blood of healthy volunteers
T1 sequence (P00797 67-406): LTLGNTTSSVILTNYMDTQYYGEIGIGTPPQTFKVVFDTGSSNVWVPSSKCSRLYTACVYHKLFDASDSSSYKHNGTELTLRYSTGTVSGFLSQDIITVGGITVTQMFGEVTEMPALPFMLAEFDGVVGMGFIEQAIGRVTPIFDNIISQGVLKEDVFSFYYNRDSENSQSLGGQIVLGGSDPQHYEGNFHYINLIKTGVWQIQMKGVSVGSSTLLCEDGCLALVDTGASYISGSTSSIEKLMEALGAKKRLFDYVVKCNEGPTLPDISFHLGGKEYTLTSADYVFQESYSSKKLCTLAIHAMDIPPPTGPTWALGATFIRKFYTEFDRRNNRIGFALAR
Procedure: In vitro human renin inhibition
Renin inhibitory activity was estimated as the percentage change in renin activity in human plasma in the presence and absence of compound. The source of plasma was blood taken from healthy volunteers. Renin activity was defined by the difference in angiotensin I levels between two halves of a sample, one incubated at 37^o and the other at 4^o for 2 h. Angiotensin I levels were measured using a ¹²⁵I- angiotensin I radioimmunoassay kit (NEN/Dupont, Stevenage). Results were calculated as the mean of at least two, duplicate determinations and IC₅₀ values were calculated by linear regression analysis of at least three concentrations of compound.

Row | SMILES | IC50
1 | CC(C)CNC(=O)C[C@H](O)[C@H](CC1CCCCC1)NC(=O)[C@H](CC(C)C)NC(=O)[C@H](Cc1ccccc1)NC(=O)CC1COc2ccc[n+]([O-])c21 (stereo partly drawn) [Example E2, 2,3-Dihydro-4-oxofuro[3,2-]pyridine-3-acetyl-Phe-Leu-ACHPA isobutylamide] | 0.021 µM

same assay, conditions: renin activity in human plasma; angiotensin I difference between halves incubated at 37° and 4° for 2 h; linear regression of at least three concentrations; read-out: IC₅₀

Row | SMILES | IC50
2 | CC(C)C[C@H](NC(=O)[C@H](Cc1ccccc1)NC(=O)CCN1C(=O)CS(=O)(=O)c2ncccc21)C(=O)N[C@@H](CC1CCCCC1)[C@@H](O)CC(=O)NCCCn1ccnc1 [Example E11, 2,3-Dihydro-1,1,3-trioxo-4H-pyrido[2,3-b]-1,4-thiazine-4-propanoyl-Phe-Leu-ACHPA 3-(1-imidazolyl)propylamide .HCl.1.5H₂O] | 0.012 µM
3 | CC(C)C[C@H](NC(=O)[C@H](Cc1ccccc1)NC(=O)CCN1C(=O)CSc2ncccc21)C(=O)N[C@@H](CC1CCCCC1)[C@@H](O)CC(=O)NCCCn1ccnc1 [Example E10, 2,3-Dihydro-3-oxo-4H-pyrido[2,3-b]-1,4-thiazine-4-propanoyl-Phe-Leu-ACHPA 3-(1-imidazolyl)propylamide .HCl] | 0.006 µM
4 | CC(C)C[C@H](NC(=O)[C@H](Cc1ccccc1)NC(=O)CCCN1Cc2ccncc2C1=O)C(=O)N[C@@H](CC1CCCCC1)[C@@H](O)CC(=O)NCCCn1ccnc1 [Example E14, 6,7-Dihydro-5H-7-oxo-pyrrolo[3,4-c]pyridine-6-butanoyl-Phe-Leu-ACHPA 3-(1-imidazolyl)propylamide.2HCl] | 0.014 µM
5 | CC(C)C[C@H](NC(=O)[C@H](Cc1ccccc1)NC(=O)CCN1C(=O)CSc2ccncc21)C(=O)N[C@@H](CC1CCCCC1)[C@@H](O)CC(=O)NCCCn1ccnc1 [Example E4, 2,3-Dihydro-3-oxo-4H-pyrido[4,3-b]-1,4-thiazine-4-propanoyl-Phe-Leu-ACHPA 3-(1-imidazolyl)propylamide] | 0.004 µM
6 | CC(C)C[C@H](NC(=O)[C@H](Cc1ccccc1)NC(=O)CCN1C(=O)COc2cccnc21)C(=O)N[C@@H](CC1CCCCC1)[C@@H](O)CC(=O)NCCCn1ccnc1 [Example E3, 2,3-Dihydro-3-oxo-4H-pyrido[3,2-b]-1,4-oxazine-4-propanoyl-Phe-Leu-ACHPA 3-(1-imidazolyl)propylamide .0.5(CHCl₃)] | 0.026 µM
